In US20020137929A1, “1 - (3-heterocyclylphenyl) isothiourea, -isourea, -guanidine and -amidine herbicidal agents” (Intellectual Property Department, BASF Aktiengesellschaft, priority 1998, published 2002):

Legend:
[1] = system: AMBEL (Ragweed, Common); test: Postemergence herbicidal evaluation; type: in vivo, Ambrosia artemisifolia; details: for AMBEL herbicidal rating: postemergence
Procedure, shortened: (§1)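 ~2-wk seedlings; postemergence spray, 40 psi; vehicle 1:1 acetone:water + 0.5% Tween 20; rate ≈0.0156–0.500 kg/ha; greenhouse hold; scored 4–5 wk after treatment, 0–9 scale vs control; repeat tests averaged.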

[2] = system: CASOB (Sicklepod); test: Postemergence herbicidal evaluation; type: in vivo, Cassia obtusifolia; details: for CASOB herbicidal rating: postemergence
Procedure, shortened: as §1

[3] = system: GALAP (Galium); test: Postemergence herbicidal evaluation; type: in vivo, Galium aparine; details: for GALAP herbicidal rating: postemergence
Procedure, shortened: as §1

[4] = system: IPOHE (Morningglory, Ivyleaf); test: Postemergence herbicidal evaluation; type: in vivo, Ipomoea hederacea; details: for IPOHE herbicidal rating: postemergence
Procedure, shortened: as §1

[5] = system: ABUTH (Velvetleaf); test: Preemergence herbicidal evaluation; type: in vivo, Abutilon theophrasti; details: rated 4-5 weeks after treatment; for ABUTH rating: preemergence, 0-9 scale
Procedure, shortened: (§2)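 In this greenhouse assay, monocot and dicot seeds are planted in soil and treated prior to emergence with an aqueous acetone spray (about 0.0156-0.500 kg/ha). Plants are assessed visually against control on a 0-9 scale after 4-5 weeks.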

[6] = system: CASOB (Sicklepod); test: Preemergence herbicidal evaluation; type: in vivo, Cassia obtusifolia; details: rated 4-5 weeks after treatment; for CASOB rating: preemergence, 0-9 scale
Procedure, shortened: as §2

[7] = system: IPOHE (Morningglory, Ivyleaf); test: Preemergence herbicidal evaluation; type: in vivo, Ipomoea hederacea; details: rated 4-5 weeks after treatment; for IPOHE rating: preemergence, 0-9 scale
Procedure, shortened: as §2

[8] = system: ECHCG (Barnyardgrass); test: Preemergence herbicidal evaluation; type: in vivo, Echinochloa crus-galli; details: rated 4-5 weeks after treatment; for ECHCG rating: preemergence, 0-9 scale
Procedure, shortened: as §2

[9] = system: GLXMAW (Soybean, Williams); test: Preemergence herbicidal evaluation; type: in vivo, Glycine max, (L.) Merr. cv Williams; details: rated 4-5 weeks after treatment; for GLXMAW rating: preemergence, 0-9 scale
Procedure, shortened: as §2

[10] = system: TRZAWR (Wheat, Winter, cv Riband); test: Preemergence herbicidal evaluation; type: in vivo, Triticum aestivum; details: rated 4-5 weeks after treatment; for TRZAWR rating: preemergence, 0-9 scale
Procedure, shortened: as §2

[11] = system: ZEAMX (Corn, Field); test: Preemergence herbicidal evaluation; type: in vivo, Zea mays; details: rated 4-5 weeks after treatment; for ZEAMX rating: preemergence, 0-9 scale
Procedure, shortened: as §2

[12] = system: MOOVA (Monochoria); test: Preemergence weed control under flooded paddy conditions; type: in vivo, Monochoria vaginalis; details: rated 3-4 weeks after treatment
Procedure, shortened: (§3)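 Using flooded silt loam (water 1.5 to 3 cm deep), seeds sown in the top 0.5 cm were exposed preemergence to compound pipetted into the flood at about 0.0313 to 0.500 kg/ha. Effects were scored 0-9 by eye three to four weeks later.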

[13] = system: SAGPY (Arrowhead (Pygmaea)); test: as above; type: in vivo, Sagittaria pygmaea; details: rated 3-4 weeks after treatment
Procedure, shortened: as §3

[14] = system: CYPIR (Rice Flatsedge); test: Postemergence weed control under flooded paddy conditions; type: in vivo, Cyperus iria; details: postemergence weeds
Procedure, shortened: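 Containers holding 3–5 cm weeds and rice at 1.5–2.5 leaves are flooded to 1.5–3 cm above soil. Compound in 50/50 v/v aqueous/acetone is then added directly to the water, about 0.0313–0.500 kg/ha. Plants are kept in the greenhouse and rated 0–9 visually at 3–4 weeks.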

CCOC(=O)CN1C(=O)C(CC(=O)OCc2ccccc2)OC1=Nc1cc(-n2c(=O)cc(C(F)(F)F)n(C)c2=O)c(F)cc1Cl (centres unmarked) [Compound 40, 2-{{2-Chloro-5-[3,6-dihydro-3-methyl-2,6-dioxo-4-(trifluoromethyl)-1(2H)-pyrimidinyl]-4-fluorophenyl}imino}-4-oxo-3,5-oxazolidinediacetic acid, 5-benzyl ethyl ester]
Postemergence herbicidal rating AMBEL ([1]; Rate 0.0158 kg/ha): 9.0
Postemergence herbicidal rating AMBEL ([1]; Rate 0.0315 kg/ha): 9.0
Postemergence herbicidal rating AMBEL ([1]; Rate 0.0630 kg/ha): 9.0
Postemergence herbicidal rating CASOB ([2]; Rate 0.0158 kg/ha): 0.0
Postemergence herbicidal rating CASOB ([2]; Rate 0.0315 kg/ha): 2.0
Postemergence herbicidal rating CASOB ([2]; Rate 0.0630 kg/ha): 5.0
Postemergence herbicidal rating GALAP ([3]; Rate 0.0158 kg/ha): 1.0
Postemergence herbicidal rating GALAP ([3]; Rate 0.0315 kg/ha): 2.0
Postemergence herbicidal rating GALAP ([3]; Rate 0.0630 kg/ha): 4.0
Postemergence herbicidal rating IPOHE ([4]; Rate 0.0158 kg/ha): 9.0
Postemergence herbicidal rating IPOHE ([4]; Rate 0.0315 kg/ha): 9.0
Postemergence herbicidal rating IPOHE ([4]; Rate 0.0630 kg/ha): 9.0
Preemergence herbicidal rating ABUTH ([5]; rate 0.0313 kg/ha): 0.0
Preemergence herbicidal rating ABUTH ([5]; rate 0.0625 kg/ha): 6.0
Preemergence herbicidal rating ABUTH ([5]; rate 0.1250 kg/ha): 9.0
Preemergence herbicidal rating ABUTH ([5]; rate 0.2500 kg/ha): 9.0
Preemergence herbicidal rating CASOB ([6]; rate 0.0313 kg/ha): 0.0
Preemergence herbicidal rating CASOB ([6]; rate 0.0625 kg/ha): 0.0
Preemergence herbicidal rating CASOB ([6]; rate 0.1250 kg/ha): 0.0
Preemergence herbicidal rating CASOB ([6]; rate 0.2500 kg/ha): 1.0
Preemergence herbicidal rating IPOHE ([7]; rate 0.0313 kg/ha): 0.0
Preemergence herbicidal rating IPOHE ([7]; rate 0.0625 kg/ha): 0.0
Preemergence herbicidal rating IPOHE ([7]; rate 0.1250 kg/ha): 9.0
Preemergence herbicidal rating IPOHE ([7]; rate 0.2500 kg/ha): 9.0
Preemergence herbicidal rating ECHCG ([8]; rate 0.0313 kg/ha): 0.0
Preemergence herbicidal rating ECHCG ([8]; rate 0.0625 kg/ha): 0.0
Preemergence herbicidal rating ECHCG ([8]; rate 0.1250 kg/ha): 1.0
Preemergence herbicidal rating ECHCG ([8]; rate 0.2500 kg/ha): 1.0
Preemergence herbicidal rating GLXMAW ([9]; rate 0.0313 kg/ha): 0.0
Preemergence herbicidal rating GLXMAW ([9]; rate 0.0625 kg/ha): 0.0
Preemergence herbicidal rating GLXMAW ([9]; rate 0.1250 kg/ha): 1.0
Preemergence herbicidal rating GLXMAW ([9]; rate 0.2500 kg/ha): 3.0
Preemergence herbicidal rating TRZAWR ([10]; rate 0.0313 kg/ha): 0.0
Preemergence herbicidal rating TRZAWR ([10]; rate 0.0625 kg/ha): 0.0
Preemergence herbicidal rating TRZAWR ([10]; rate 0.1250 kg/ha): 0.0
Preemergence herbicidal rating TRZAWR ([10]; rate 0.2500 kg/ha): 1.0
Preemergence herbicidal rating ZEAMX ([11]; rate 0.0313 kg/ha): 0.0
Preemergence herbicidal rating ZEAMX ([11]; rate 0.0625 kg/ha): 0.0
Preemergence herbicidal rating ZEAMX ([11]; rate 0.1250 kg/ha): 0.0
Preemergence herbicidal rating ZEAMX ([11]; rate 0.2500 kg/ha): 1.0
Herbicidal rating MOOVA ([12]; 0.0313 kg/ha): 9.0
Herbicidal rating MOOVA ([12]; 0.0625 kg/ha): 9.0
Herbicidal rating MOOVA ([12]; 0.1250 kg/ha): 9.0
Herbicidal rating MOOVA ([12]; 0.2500 kg/ha): 9.0
Herbicidal rating SAGPY ([13]; 0.0313 kg/ha): 0.0
Herbicidal rating SAGPY ([13]; 0.0625 kg/ha): 0.0
Herbicidal rating SAGPY ([13]; 0.1250 kg/ha): 0.0
Herbicidal rating SAGPY ([13]; 0.2500 kg/ha): 0.0
Herbicidal rating CYPIR ([14]; rate 0.0313 kg/ha, 3-4 weeks after treatment): 0.0
Herbicidal rating CYPIR ([14]; rate 0.0625 kg/ha, 3-4 weeks after treatment): 0.0
Herbicidal rating CYPIR ([14]; rate 0.1250 kg/ha, 3-4 weeks after treatment): 0.0
Herbicidal rating CYPIR ([14]; rate 0.2500 kg/ha, 3-4 weeks after treatment): 0.0

C=CCN1C(=O)C(CC(=O)NOC)SC1=Nc1cc(-n2c(=O)cc(C(F)(F)F)n(C)c2=O)c(F)cc1Cl (centres unmarked) [Compound 85]
AMBEL herbicidal rating ([1]; rate 0.0156 kg/ha): 9.0
AMBEL herbicidal rating ([1]; rate 0.0313 kg/ha): 9.0
AMBEL herbicidal rating ([1]; rate 0.0625 kg/ha): 9.0
AMBEL herbicidal rating ([1]; rate 0.1250 kg/ha): 9.0
CASOB herbicidal rating ([2]; rate 0.0156 kg/ha): 0.0
CASOB herbicidal rating ([2]; rate 0.0313 kg/ha): 0.0
CASOB herbicidal rating ([2]; rate 0.0625 kg/ha): 0.0
CASOB herbicidal rating ([2]; rate 0.1250 kg/ha): 2.0
GALAP herbicidal rating ([3]; rate 0.0156 kg/ha): 0.0
GALAP herbicidal rating ([3]; rate 0.0313 kg/ha): 1.0
GALAP herbicidal rating ([3]; rate 0.0625 kg/ha): 3.0
GALAP herbicidal rating ([3]; rate 0.1250 kg/ha): 5.0
IPOHE herbicidal rating ([4]; rate 0.0156 kg/ha): 9.0
IPOHE herbicidal rating ([4]; rate 0.0313 kg/ha): 9.0
IPOHE herbicidal rating ([4]; rate 0.0625 kg/ha): 9.0
IPOHE herbicidal rating ([4]; rate 0.1250 kg/ha): 9.0
ABUTH rating ([5]; 0.0156 kg/ha): 0.0
ABUTH rating ([5]; 0.0313 kg/ha): 9.0
ABUTH rating ([5]; 0.0625 kg/ha): 9.0
ABUTH rating ([5]; 0.1250 kg/ha): 9.0
ABUTH rating ([5]; 0.2500 kg/ha): 9.0
ABUTH rating ([5]; 0.5000 kg/ha): 9.0
CASOB rating ([6]; 0.0156 kg/ha): 0.0
CASOB rating ([6]; 0.0313 kg/ha): 0.0
CASOB rating ([6]; 0.0625 kg/ha): 0.0
CASOB rating ([6]; 0.1250 kg/ha): 0.0
CASOB rating ([6]; 0.2500 kg/ha): 0.0
CASOB rating ([6]; 0.5000 kg/ha): 9.0
IPOHE rating ([7]; 0.0156 kg/ha): 0.0
IPOHE rating ([7]; 0.0313 kg/ha): 0.0
IPOHE rating ([7]; 0.0625 kg/ha): 2.0
IPOHE rating ([7]; 0.1250 kg/ha): 5.0
IPOHE rating ([7]; 0.2500 kg/ha): 7.0
IPOHE rating ([7]; 0.5000 kg/ha): 9.0
ECHCG rating ([8]; 0.0156 kg/ha): 0.0
ECHCG rating ([8]; 0.0313 kg/ha): 0.0
ECHCG rating ([8]; 0.0625 kg/ha): 0.0
ECHCG rating ([8]; 0.1250 kg/ha): 0.0
ECHCG rating ([8]; 0.2500 kg/ha): 0.0
ECHCG rating ([8]; 0.5000 kg/ha): 4.0
GLXMAW rating ([9]; 0.0156 kg/ha): 0.0
GLXMAW rating ([9]; 0.0313 kg/ha): 0.0
GLXMAW rating ([9]; 0.0625 kg/ha): 0.0
GLXMAW rating ([9]; 0.1250 kg/ha): 2.0
GLXMAW rating ([9]; 0.2500 kg/ha): 2.0
GLXMAW rating ([9]; 0.5000 kg/ha): 9.0
TRZAWR rating ([10]; 0.0156 kg/ha): 0.0
TRZAWR rating ([10]; 0.0313 kg/ha): 0.0
TRZAWR rating ([10]; 0.0625 kg/ha): 0.0
TRZAWR rating ([10]; 0.1250 kg/ha): 3.0
TRZAWR rating ([10]; 0.2500 kg/ha): 5.0
TRZAWR rating ([10]; 0.5000 kg/ha): 8.0
ZEAMX rating ([11]; 0.0156 kg/ha): 0.0
ZEAMX rating ([11]; 0.0313 kg/ha): 0.0
ZEAMX rating ([11]; 0.0625 kg/ha): 0.0
ZEAMX rating ([11]; 0.1250 kg/ha): 2.0
ZEAMX rating ([11]; 0.2500 kg/ha): 5.0
ZEAMX rating ([11]; 0.5000 kg/ha): 9.0
MOOVA herbicidal effect rating ([12]; 0.0313 kg/ha): 9.0
MOOVA herbicidal effect rating ([12]; 0.0625 kg/ha): 9.0
MOOVA herbicidal effect rating ([12]; 0.1250 kg/ha): 9.0
MOOVA herbicidal effect rating ([12]; 0.2500 kg/ha): 9.0
SAGPY herbicidal effect rating ([13]; 0.0313 kg/ha): 3.0
SAGPY herbicidal effect rating ([13]; 0.0625 kg/ha): 3.0
SAGPY herbicidal effect rating ([13]; 0.1250 kg/ha): 9.0
SAGPY herbicidal effect rating ([13]; 0.2500 kg/ha): 9.0
Herbicidal rating CYPIR ([14]; Rate 0.0313 kg/ha, rated 3 to 4 weeks after treatment): 3.0
Herbicidal rating CYPIR ([14]; Rate 0.0625 kg/ha, rated 3 to 4 weeks after treatment): 7.0
Herbicidal rating CYPIR ([14]; Rate 0.1250 kg/ha, rated 3 to 4 weeks after treatment): 9.0
Herbicidal rating CYPIR ([14]; Rate 0.2500 kg/ha, rated 3 to 4 weeks after treatment): 9.0
